In EP4506003A1, “HALOGEN DERIVATIVES OF (4´,5´- METHYLENEDIOXYPHENYL)-6,7-DIMETHOXY-1,2,3,4-TETRAHYDROISOQUINOLINE FOR USE IN THE TREATMENT OF LEUKEMIA” (S.Yu Yunusov Institute of Chemistry of Plant Substances of …, priority 2023, dated 2025):

Experiments:
[1] = system: blood of patients with AML; test: Hemogram of blood of patients with AML after exposure (Example 14, Table 11); type: cell-based; details: AML (Table 11); 10 µg/ml; 3 hours, 37.0°C
Description: (§1) The effect of compounds F1 and F2 was studied on biological material (blood) of patients with hematological malignancies (leukemia), as well as for individual nosologies, in particular, patients with leukemia (combined group) (n=224), T-ALL (n=84), B-ALL (n=100), ALL (n=100), AML (n= 98), AML (n=94) and AML (n= 98) were studied. A total of 798 blood samples from patients with leukemia were examined.
(§2) The drugs Cytosar (Alexan) (Ebewe Pharma, Austria) and doxorubicin (Naprod, Mumbai, India) recommended by WHO for the treatment of the above oncohematological diseases were used as comparison drugs.
(§3) 5 ml of venous blood from sick and conditionally healthy individuals were collected into Vacutainer tubes with the addition of EDTA (Himedia, India).
(§4) The resulting blood was divided into aliquots of 1 ml and 10 µl (10 µg/ml) of the studied drugs (cytosar, doxorubicin, F1 and F2) were added to each tube.

[2] = system: blood of patients with AML; test: Hemogram of blood of patients with AML after exposure (Example 12, Table 9); type: cell-based; details: AML (Table 9); 10 µg/ml; 3 hours, 37.0°C
Protocol: as §2, §3, §4

[3] = system: blood of conditionally healthy individuals; test: Hemogram of blood of conditionally healthy individuals after exposure to the drugs; details: 10 µg/ml, 3 hours, 37.0°C
Protocol: as §3, §4

[4] = system: blood of patients with T-ALL; test: Hemogram of blood of patients with T-ALL after exposure; type: cell-based; details: 10 µg/ml, 3 hours, 37.0°C
Description: as §1, §2, §3, §4

[5] = system: blood of patients with ALL; test: Hemogram of blood of patients with ALL after exposure; type: cell-based; details: 10 µg/ml, 3 hours, 37.0°C
Protocol: as §1, §3, §4

[6] = system: blood of patients with B-ALL; test: Hemogram of blood of patients with B-ALL after exposure; type: cell-based; details: 10 µg/ml, 3 hours, 37.0°C
Protocol: A total of 798 blood samples from patients with leukemia were examined.
as §2, §3, §4

[7] = system: blood of patients with AML; test: Hemogram of blood of patients with AML after exposure (Example 13, Table 10; also OMML); type: cell-based; details: AML (Table 10); 10 µg/ml; 3 hours, 37.0°C
Protocol: as §2, §3, §4

[8] = system: blood of patients with leukemia (combined group); test: Hemogram of blood of patients with leukemia (combined group) after exposure; type: cell-based; details: 10 µg/ml, 3 hours, 37.0°C
Description: as §1, §2, §3, §4

Band (s/n) neutrophils [3]: 1,8±0,2 % | Blasts [3]: 0,0±0,0% | Destroyed cells [3]: 0,0±0,0% | Eosinophils [3]: 2,1±0,4% | Lymphocytes [3]: 28,0±1,2% | Monocytes [3]: 6,6±0,4 % | Myelocytes [3]: 0,0±0,0% | Promyelocytes [3]: 0,0±0,0% | Segmented (s/i) neutrophils [3]: 61,5±1,2%
SMILES: Nc1ccn([C@@H]2O[C@H](CO)[C@@H](O)[C@@H]2O)c(=O)n1 [Cytosar, cytarabine, reference compound]
Band (s/n) neutrophils [1]: 3,5±1,0 % | Blasts [1]: 59,5±3,7 % | Destroyed cells [1]: 12,4±1,7 % | Eosinophils [1]: 4,0±0,2% | Lymphocytes [1]: 8,4 ±0,9% | Monocytes [1]: 4,9±1,2 % | Myelocytes [1]: 1,8±0,4% | Promyelocytes [1]: 0,0±0,0% | Segmented (s/i) neutrophils [1]: 9,2±2,3% | Band (s/n) neutrophils [2]: 1,2±0,5% | Blasts [2]: 65,4±3,9 % | Destroyed cells [2]: 6,3±1,7 % | Eosinophils [2]: 1,0±0,9% | Lymphocytes [2]: 12,5±1,7% | Monocytes [2]: 3,4±0,8% | Myelocytes [2]: 1,4±0,6% | Promyelocytes [2]: 0,9±0,6% | Segmented (s/i) neutrophils [2]: 5,6±1,2% | Band (s/n) neutrophils [4]: 1,0±0,1% | Blasts [4]: 73,5±2,0 % | Destroyed cells [4]: 8,8±1,0 % | Eosinophils [4]: 0,0±0,0% | Lymphocytes [4]: 11,5±1,0 % | Monocytes [4]: 2,3±0,4% | Myelocytes [4]: 0,0±0,0% | Promyelocytes [4]: 0,0±0,000% | Segmented (s/i) neutrophils [4]: 3,0±0,4 % | Band (s/n) neutrophils [5]: 0,4±0,2% | Blasts [5]: 78,7±1,4 % | Destroyed cells [5]: 4,8±1,4 % | Eosinophils [5]: 0,0±0,0% | Lymphocytes [5]: 11,4±0,8% | Monocytes [5]: 2,2±0,4% | Myelocytes [5]: 0,2±0,1% | Promyelocytes [5]: 0,0±0,0% | Segmented (s/i) neutrophils [5]: 2,4±0,6% | Band (s/n) neutrophils [6]: 0,6±0,3% | Blasts [6]: 63,5±3,4 % | Destroyed cells [6]: 8,9±2,2 % | Eosinophils [6]: 0,1±0,1% | Lymphocytes [6]: 17,2±2,0% | Monocytes [6]: 4,6±1,2% | Myelocytes [6]: 0,7±0,4% | Promyelocytes [6]: 0,0±0,0% | Segmented (s/i) neutrophils [6]: 6,1±0,9% | Band (s/n) neutrophils [7]: 3,6±0,5% | Blasts [7]: 50,2±2,8% | Destroyed cells [7]: 7,8±0,6 % | Eosinophils [7]: 0,6±0,3% | Lymphocytes [7]: 6,6±0,7% | Monocytes [7]: 1,2±0,2 % | Myelocytes [7]: 16,0±1,4 % | Promyelocytes [7]: 0,0±0,0% | Segmented (s/i) neutrophils [7]: 14,1±1,2 % | Band (s/n) neutrophils [8]: 1,1±0,4 % | Blasts [8]: 65,9±2,8 % | Destroyed cells [8]: 9,0±1,6 % | Eosinophils [8]: 0,4±0,3% | Lymphocytes [8]: 13,7±1,6% | Monocytes [8]: 3,5±0,6 % | Myelocytes [8]: 1,1±0,3 % | Promyelocytes [8]: 0,2±0,1% | Segmented (s/i) neutrophils [8]: 6,7±1,1%
